We go through four compounds from patent US12144785B2, “Composition of vitamin K and vitamin D for treating or preventing cardiovascular disease” (NATTOPHARMA AS, priority 2002, dated 2024).

The subject of this experiment is thoracic aorta. Description: Aortic calcification in warfarin-treated rats: total calcium in thoracic aorta extract by atomic absorptiometry. It counts as in vivo. As to conditions: for Pre-formed calcium crystals / aortic calcification on high vitamin K diet: "high K": 6 weeks warfarin, then 6 weeks diet with 100 μg/g vitamin K, FIG. 6, means of K1 and K2 groups; for Difference between the outcomes for K1 and K2: high vitamin K diet after 6 weeks warfarin. Here is the method: We performed and experiment using 48 rats. Each point in the various curves shown in FIGS. 3-6 is the mean of six rats, which were sacrificed. The thoracic aorta was dissected, homogenized, and precipitated calcium salts were dissolved in formic acid. The total calcium concentration in the extract was assessed by atomic absorptiometry, and is expressed as microgram calcium per gram of tissue.
Six of them were killed at baseline, six after 6 weeks, and the last six after 12 weeks. Apart from the cellular calcium, no accretion of calcium was observed during the test period. […] The protocol used involves the oral administration of a mixture of warfarin (3 mg/g of food) and vitamin K1 (1.5 mg/g of food) and is explained extensively in: H. M. H. Spronk et al, Tissue-specific utilization of menaquinone-4 results in the prevention of arterial calcification in warfarin-treated rats, Journal of Vascular Research 2003; 40:531-537. This treatment is designated as “low K”. Six rats were killed after 6 weeks of treatment, and another six after 12 weeks of treatment.
The other rats were first treated for six weeks with warfarin. One group of animals was subsequently fed the standard diet containing 5 μg vitamin K per g of food (indicated as “norm K”). […] Apparently, the presence of calcium precipitates is a sufficient trigger to continue further calcification (see FIG. 5) when using a normal diet.
Finally, we used two groups of six rats who had received the first 6-week treatment with warfarin, and a high vitamin K diet in the second 6-week period. One group received a diet containing […] of vitamin K1, the other one a diet containing 100 μg/g of vitamin K2 (menaquinone-4). Since there was no difference between the outcomes for K1 and K2, we present the means of both groups in FIG. 6 (designated as “high K”). […] This may be related to the relatively high dose used, and different efficacies may still be found from dose-response experiments. […] It may be expected that after prolonged treatment all calcified precipitates will dissolve by high vitamin K intake. The dose used for dissolving calcified precipitates in the aorta was 20 times the normal dose used (compared to the recommended allowance in humans). If extrapolated to humans the effective intake of vitamin K should thus be increased from 100 μg/day to 2 mg/day. Experiments in which lower doses are used will be initiated. However, it is likely that a similar effect will be observed at lower doses, even as low as 1-2 times the normal daily intake. This will depend upon factors such as vitamin K absorption since synthetic supplemented vitamin K is typically absorbed better (e.g. 10-20 fold) than nutritional vitamin K (e.g. which may be bound to chloroplasts in the food matrix).

With `CC(C)=CCC/C(C)=C/CC/C(C)=C/CC/C(C)=C/CC1=C(C)C(=O)c2ccccc2C1=O` [vitamin K2, menaquinone-4], the “Pre-formed calcium crystals / aortic calcification on high vitamin K diet” value is given as “dissolved to a great deal”; the “Difference between the outcomes for K1 and K2” value is “no difference”.
Consider `CC(=O)CC(c1ccccc1)c1c(O)c2ccccc2oc1=O` (stereo not drawn) [warfarin], for which, where the note is “"low K": warfarin 3 mg/g food + vitamin K1 1.5 mg/g food, oral, 6 and 12 weeks, FIG. 4”, the “Calcium in the arterial wall” value is “constant increase”.
In the case of vitamin K, the “Aortic calcification after change to the standard diet” value ("norm K": 6 weeks warfarin, then standard diet with 5 μg vitamin K per g of food, FIG. 5) is “did not stop”.
Take `CC1=C(C/C=C(\C)CCC[C@H](C)CCC[C@H](C)CCCC(C)C)C(=O)c2ccccc2C1=O` [vitamin K1, phylloquinone]: the “Pre-formed calcium crystals / aortic calcification on high vitamin K diet” value was “dissolved to a great deal”; the “Difference between the outcomes for K1 and K2” value is “no difference”.
